How the values were obtained:
Format in all cases: biochemical, Escherichia coli
CMY-185 [1] = target: T1, CMY-185 (Klebsiella pneumoniae, UniProt Q48434, A134E/N366Y/Q140K/V231S); assay: Competitive inhibition of cephalothin hydrolysis and avibactam inhibition kinetics
T1 construct: all CMY-2 variant genes encoding the mature enzyme without a signal peptide were cloned into the protein expression plasmid vector pET-30b; made in house; host or cells: E. coli BL21 (DE3), pET-30b
Source text: (§1) We tested the enzymes, CMY-2, two single mutants V211S (CMY-42) and N346Y, three double mutants A114E_N346Y, Q120K_N346Y, and V211S_N346Y, and the quadruplet mutant CMY-185 to elucidate the impact on the kinetic properties resulting from the four amino acid substitutions present in CMY-185 compared with CMY-2 ([8]). The steady-state kinetic parameters kcat and Km (or Ki app) for nitrocefin, cephalothin, ceftazidime, and cefiderocol and the inhibition parameters Ki app, k2/K, k−2, and koff for avibactam are summarized in Table 1. During the hydrolysis of nitrocefin, we observed the reduction of the initial velocity at concentrations above 50 µM particularly for the CMY-2 variants harboring the N346Y substitution. As this could have represented substrate inhibition, we then determined the kinetics parameters for nitrocefin using the Haldane equation ([16]). […] In addition, during the hydrolysis of cefiderocol by CMY-185, the initial velocities at a concentration range of 3.7–59.4 µM were similar.
(§2) The steady-state kinetics were carried out on a UV-Visible spectrometer (UV-1280, Shimadzu, Japan) in PBS pH 7.2 at 25°C with a constant amount of enzyme and varying concentrations of the substrates. We tested nitrocefin, cephalothin, ceftazidime, and cefiderocol as the substrates and avibactam as the inhibitor. The steady-state kinetics parameters Km and kcat were determined with the Michaelis-Menten equation. For poorly hydrolyzed substrates, the Km value was assumed to be the competitive inhibition constant (Ki app) value according to previous studies ([17], [19]). Inhibition parameter values of Ki app, k2/K, k−2, and koff for avibactam were determined using a method as described previously ([33]). Cephalothin was used as the reporter substrate for competitive inhibition experiments, and its concentration was fixed at 100 µM. The enzyme concentration was 1–10 nM. Inverse steady-state initial velocities were plotted against the concentration of the competitive inhibitor agents, such as ceftazidime, cefiderocol, and avibactam. The data were analyzed by linear regression analysis of the Dixon plot, and Ki app (observed) was determined by dividing the y-intercept value by the slope of the line. It was then corrected to account for the affinity of cephalothin for each enzyme using the Equation (1):
(§3) (1) Ki app=Ki app (observed)/{1+[S]/Km (cephalothin)}
(§4) where [S] represents the concentration of the reporter substrate cephalothin, and Km (cephalothin) is the Km value of cephalothin for each enzyme.
(§5) The koff value was determined using a jump dilution assay. The enzyme and avibactam were mixed and preincubated at 25°C for 5 min. The concentration of avibactam depended on the enzyme and concentrations 10-fold higher from each Ki app (observed) value were adopted, which were determined based on the corrected competitive inhibition constants Ki app. Preincubated enzyme-avibactam mixture was then diluted 2,000-fold in the 100 µM cephalothin solution, and the hydrolysis of cephalothin was measured. Three independent measurements were performed for each enzyme and substrate or inhibitor combination. Curve fittings using linear or non-linear regression were performed with R 4.1.3 (R Core Team, 2022).

CMY-2 [2] = target: T2, CMY-2 (Klebsiella pneumoniae, UniProt Q48434); assay: as above; conditions: for Ki: reporter substrate cephalothin 100 µM, Dixon plot, read-out: Ki app
T2 construct: all CMY-2 variant genes encoding the mature enzyme without a signal peptide were cloned into the protein expression plasmid vector pET-30b; made in house; host or cells: E. coli BL21 (DE3), pET-30b
Source text: as §1, §2, §3, §4, §5

[3] = target: T3, CMY-2 variant A114E_N346Y (Klebsiella pneumoniae, UniProt Q48434, A134E/N366Y); assay: as above; conditions: for Ki: reporter substrate cephalothin 100 µM, Dixon plot, read-out: Ki app
T3 construct: all CMY-2 variant genes encoding the mature enzyme without a signal peptide were cloned into the protein expression plasmid vector pET-30b; made in house; host or cells: E. coli BL21 (DE3), pET-30b
Source text: as §1, §2, §3, §4, §5

CMY-2 variant N346Y [4] = target: T4, CMY-2 variant N346Y (Klebsiella pneumoniae, UniProt Q48434, N366Y); assay: as above; conditions: for Ki: reporter substrate cephalothin 100 µM, Dixon plot, read-out: Ki app
T4 construct: all CMY-2 variant genes encoding the mature enzyme without a signal peptide were cloned into the protein expression plasmid vector pET-30b; made in house; host or cells: E. coli BL21 (DE3), pET-30b
Source text: as §1, §2, §3, §4, §5

[5] = target: T5, CMY-2 variant Q120K_N346Y (Klebsiella pneumoniae, UniProt Q48434, N366Y/Q140K); assay: as above
T5 construct: all CMY-2 variant genes encoding the mature enzyme without a signal peptide were cloned into the protein expression plasmid vector pET-30b; made in house; host or cells: E. coli BL21 (DE3), pET-30b
Source text: as §1, §2, §3, §4, §5

[6] = target: T6, CMY-2 variant V211S_N346Y (Klebsiella pneumoniae, UniProt Q48434, N366Y/V231S); assay: as above
T6 construct: all CMY-2 variant genes encoding the mature enzyme without a signal peptide were cloned into the protein expression plasmid vector pET-30b; made in house; host or cells: E. coli BL21 (DE3), pET-30b
Source text: as §1, §2, §3, §4, §5

V211S (CMY-42) [7] = target: T7, V211S (CMY-42) (Klebsiella pneumoniae, UniProt Q48434, V231S); assay: as above
T7 construct: all CMY-2 variant genes encoding the mature enzyme without a signal peptide were cloned into the protein expression plasmid vector pET-30b; made in house; host or cells: E. coli BL21 (DE3), pET-30b
Source text: as §1, §2, §3, §4, §5

CMY-2 [8] = target: T2, CMY-2; assay: Steady-state hydrolysis kinetics
Source text: as §1
as §2, with “The enzyme concentration was 1–10 nM.” left out, “(1): […]” for “(1):”

[9] = target: T3, CMY-2 variant A114E_N346Y; assay: Steady-state hydrolysis kinetics; conditions: for Km / kcat: PBS pH 7.2, 25°C
Source text: as §1
as §2, with “The enzyme concentration was 1–10 nM.” left out, “(1): […]” for “(1):”

CMY-2 variant N346Y [10] = target: T4, CMY-2 variant N346Y; assay: Steady-state hydrolysis kinetics; conditions: for Km / kcat: PBS pH 7.2, 25°C
Source text: as §1
as §2, with “The enzyme concentration was 1–10 nM.” left out, “(1): […]” for “(1):”

CMY-185 [11] = target: T1, CMY-185; assay: Steady-state hydrolysis kinetics; conditions: for Km / kcat: PBS pH 7.2, 25°C
Source text: as §1
as §2, with “(1): […]” for “(1):”

[12] = target: T5, CMY-2 variant Q120K_N346Y; assay: Steady-state hydrolysis kinetics; conditions: for Km / kcat: PBS pH 7.2, 25°C
Source text: as §1
as §2, with “(1): […]” for “(1):”

[13] = target: T6, CMY-2 variant V211S_N346Y; assay: Steady-state hydrolysis kinetics; conditions: V211S_N346Y; for Km / kcat: PBS pH 7.2, 25°C
Source text: as §1
as §2, with “(1): […]” for “(1):”

V211S (CMY-42) [14] = target: T7, V211S (CMY-42); assay: Steady-state hydrolysis kinetics; conditions: for Km / kcat: PBS pH 7.2, 25°C
Source text: as §1
as §2, with “(1): […]” for “(1):”

[15] = tested on: CC(=O)OCC1=C(C(=O)O)N2C(=O)[C@@H](NC(=O)Cc3cccs3)[C@H]2SC1; assay: Steady-state hydrolysis kinetics; conditions: other: CMY-2, PBS pH 7.2, 25°C
Source text: as §1
as §2, with “The enzyme concentration was 1–10 nM.” left out, “(1): […]” for “(1):”

[16] = tested on: O=C(Cc1cccs1)N[C@@H]1C(=O)N2C(C(=O)O)=C(/C=C/c3ccc([N+](=O)[O-])cc3[N+](=O)[O-])CS[C@H]12; assay: Steady-state hydrolysis kinetics; conditions: other: CMY-2, PBS pH 7.2, 25°C
Source text: as §1
as §2, with “The enzyme concentration was 1–10 nM.” left out, “(1): […]” for “(1):”

[17] = reporter substrate cephalothin 100 µM, Dixon plot, read-out: Ki app
[18] = substrate 100 µM, 100–200 nM enzyme
[19] = substrate inhibition, Haldane equation

## NC(=O)[C@@H]1CC[C@@H]2CN1C(=O)N2OS(=O)(=O)O [Avibactam, avibactam]
CMY-185 [1]; CMY-185, decarbamoylation rate constant
  k−2: 0.0007 ± 5e-05 s⁻¹
CMY-185 [1]; CMY-185, jump dilution assay
  koff: 4.8e-07 s⁻¹
CMY-185 [1]; CMY-185, reporter substrate cephalothin 100 µM, Dixon plot, read-out: Ki app
  Ki: 1300 µM
CMY-185 [1]; CMY-185 compared to CMY-2 and V211S
  fold higher Ki app: 20,000 fold
CMY-2 [2]; decarbamoylation rate constant
  k−2: 0.00012 ± 2e-05 s⁻¹
CMY-2 [2]; jump dilution assay
  koff: 7.3e-05 s⁻¹
CMY-2 [2]
  Ki: 0.063 µM
CMY-2 [2]; second-order carbamoylation rate constant, read-out: k2/K
  kinact/KI: 28000 M⁻¹ s⁻¹
[3]; decarbamoylation rate constant
  k−2: 0.00011 ± 0 s⁻¹
[3]; jump dilution assay
  koff: 9e-07 s⁻¹
[3]
  Ki: 80 ± 9 µM
CMY-2 variant N346Y [4]; N346Y compared to CMY-2 and V211S
  fold higher Ki app: 1,000 fold
CMY-2 variant N346Y [4]; N346Y, decarbamoylation rate constant
  k−2: 1e-05 ± 0.00016 s⁻¹
CMY-2 variant N346Y [4]; N346Y, jump dilution assay
  koff: 2.6e-06 s⁻¹
CMY-2 variant N346Y [4]; N346Y
  Ki: 41 ± 6 µM
[5]; Q120K_N346Y compared to CMY-2 and V211S
  fold higher Ki app: 10,000 fold
[5]; Q120K_N346Y compared to N346Y
  fold higher Ki app: 10 fold
[5]; Q120K_N346Y, decarbamoylation rate constant
  k−2: 0.002 ± 0.0001 s⁻¹
[5]; Q120K_N346Y, jump dilution assay
  koff: 4e-06 s⁻¹
[5]; Q120K_N346Y, reporter substrate cephalothin 100 µM, Dixon plot, read-out: Ki app
  Ki: 590 µM
[6]; decarbamoylation rate constant
  k−2: 0.00044 ± 0.00021 s⁻¹
[6]; jump dilution assay
  koff: 2.4e-06 s⁻¹
[6]; [17]
  Ki: 14 ± 4 µM
V211S (CMY-42) [7]; decarbamoylation rate constant
  k−2: 0.00015 ± 2e-05 s⁻¹
V211S (CMY-42) [7]; jump dilution assay
  koff: 6e-05 s⁻¹
V211S (CMY-42) [7]; [17]
  Ki: 0.034 µM

## CC(C)(O/N=C(\C(=O)N[C@@H]1C(=O)N2C(C(=O)[O-])=C(C[n+]3ccccc3)CS[C@H]12)c1csc(N)n1)C(=O)O [Ceftazidime, ceftazidime]
CMY-2 [8]; [18]
  hydrolysis: no apparent hydrolysis
[9]; [18]
  hydrolysis: no apparent hydrolysis
CMY-2 variant N346Y [10]; [18]
  hydrolysis: no apparent hydrolysis
CMY-185 [11]
  Km: 2.2 ± 0.3 µM
  kcat: 0.1 ± 0.0 s⁻¹
[12]
  Km: 5.3 ± 0.5 µM
  kcat: 0.077 ± 0.003 s⁻¹
[13]
  Km: 37 ± 2 µM
  kcat: 0.3 ± 0.0 s⁻¹
V211S (CMY-42) [14]
  Km: 74 ± 10 µM
  kcat: 1.5 ± 0.2 s⁻¹
CMY-2 [2]
  Ki: 0.7 ± 0.1 µM
[3]
  Ki: 0.3 µM
CMY-2 variant N346Y [4]; N346Y
  Ki: 0.7 ± 0.2 µM

## CC(=O)OCC1=C(C(=O)O)N2C(=O)[C@@H](NC(=O)Cc3cccs3)[C@H]2SC1 [Cephalothin, cephalothin]
[9]
  Km: 1.4 ± 0.1 µM
  kcat: 3.3 ± 0.1 s⁻¹
CMY-2 variant N346Y [10]
  Km: 3.9 ± 0.1 µM
  kcat: 18 ± 7 s⁻¹
CMY-185 [11]
  Km: 19 ± 1 µM
  kcat: 14 ± 1 s⁻¹
[12]
  Km: 18 ± 3 µM
  kcat: 42 ± 5 s⁻¹
[13]
  Km: 4.4 ± 0.3 µM
  kcat: 9.6 ± 0.2 s⁻¹
V211S (CMY-42) [14]
  Km: 7.5 ± 1.1 µM
  kcat: 83 ± 7 s⁻¹

## O=C(Cc1cccs1)N[C@@H]1C(=O)N2C(C(=O)O)=C(/C=C/c3ccc([N+](=O)[O-])cc3[N+](=O)[O-])CS[C@H]12 [Nitrocefin, nitrocefin]
CMY-2 [8]; [19]
  Ki: 160 µM
[9]
  Km: 16 ± 4 µM
  kcat: 57 ± 10 s⁻¹
[9]; [19]
  Ki: 68 ± 37 µM
CMY-2 variant N346Y [10]
  Km: 25 ± 3 µM
  kcat: 61 ± 5 s⁻¹
CMY-2 variant N346Y [10]; [19]
  Ki: 87 ± 25 µM
CMY-185 [11]
  Km: 39 ± 24 µM
  kcat: 17 ± 9 s⁻¹
CMY-185 [11]; [19]
  Ki: 18 ± 13 µM
[12]
  Km: 50 ± 40 µM
  kcat: 120 ± 90 s⁻¹
[12]; [19]
  Ki: 14 ± 12 µM
[13]
  Km: 35 ± 10 µM
  kcat: 85 ± 18 s⁻¹
[13]; [19]
  Ki: 100 µM
V211S (CMY-42) [14]
  Km: 29 ± 12 µM
  kcat: 320 ± 102 s⁻¹
V211S (CMY-42) [14]; [19]
  Ki: 130 µM

## CMY-2 (Klebsiella pneumoniae)
[15]
  Km: 4.1 ± 0.3 µM
  kcat: 54 ± 0.8 s⁻¹
  kcat/Km: 1.3e+07 ± 1e+06 M⁻¹ s⁻¹
[16]
  Km: 17 ± 5 µM
  kcat: 240 ± 50 s⁻¹
  kcat/Km: 1.4e+07 ± 5e+06 M⁻¹ s⁻¹
